Reference: patent US20060148732A1, “Inhibition of NF-kappaB by triterpene compositions” (priority 2000, published 2006)

How the values were obtained:
[1] = tested on: pGL3-NF-κB in Jurkat cells; assay: NF-κB dependent luciferase gene expression; assay type: cell-based, human; settings: transfected Jurkat; pretreatment
Description: Transfection and Assay of Luciferase Activity. Jurkat cells were transfected with pGL3-NF-κB by electroporation. The cells were then treated with monoterpene/triterpene glycoside G1 (1 μg/ml) for 16 h. NF-κB was activated using LPS (100 ng/ml), PMA (5 ng/ml), or TNF (1 nM). Luciferase activity was measured using the luciferase assay kit (Promega, Madison, Wis.) as per the manufacturer's instructions.

[2] = tested on: mitochondrial fraction of Jurkat cells; assay: Cytochrome c release in a cell free system; assay type: biochemical, human; settings: isolated mitochondria
Description: Isolation of the Submitochondrial Fraction. Jurkat cells (1.5-2.0×10^7) were suspended in 1 ml sucrose buffer (250 mM sucrose in 30 mM Tris-HCl pH 7.4) and transferred into an N2 cavitation chamber (PARR Instruments Company, Moline, Ill.). The cells were subjected to N2 cavitation (300 psi for 5 min) as per the manufacturer's instructions. Under these conditions most of the cell membrane was disrupted with no change in the mitochondrial respiratory activity. Next, DNA and the nuclear fraction were removed by centrifugation (1500 g, 30 sec). The supernatant was further centrifuged (16000 g, 10 min) and the pellet was used as the submitochondrial fraction.
To observe if monoterpene/triterpenoid saponins directly affected mitochondria to induce apoptosis, experiments were carried out using avicin G in a cell free system. Mitochondria were isolated from Jurkat cells by the N2 cavitation method.

iNOS in RAW 264.7 cells = assay: LPS-induced iNOS expression (western blot); assay type: cell-based; settings: RAW264.7; 2 μg/ml 16 h; LPS 100 ng/ml
Description: (§1) Induction and Measurement of iNOS and COX-2. RAW 264.7 cells (0.5×10^6/ml) were plated in 100 mm dishes and treated with F094 or monoterpene/triterpene glycosides (2 μg/ml) for 16 h. Next, the cells were exposed to 100 ng/ml of LPS for 24 h. Cells were lysed in a buffer containing 50 mM Tris, pH 7.4, 100 mM NaCl, 0.5% NP-40, 10 μg/ml leupeptin, 5 μg/ml aprotinin, and 100 μM PMSF. 70 μg of cellular protein were then loaded on a 7.5% SDS-polyacrylamide gel and electrotransferred onto a nitrocellulose membrane. Levels of iNOS and COX-2 were analyzed by Western blot analysis using rabbit anti-iNOS (Santa Cruz) and goat anti-COX-2 antibodies respectively.

COX-2 in RAW 264.7 cells = assay: LPS-induced COX-2 expression (western blot); assay type: cell-based; settings: RAW264.7; 2 μg/ml 16 h; LPS 100 ng/ml
Description: as §1

[3] = tested on: p65 subunit of NF-κB in Jurkat cells; assay: Western blot of nuclear translocation of p65; assay type: cell-based, human; settings: 2 μg/ml 16 hours, TNF 1 nM
Description: Western Blot Analysis. Cytoplasmic and nuclear extracts of Jurkat cells treated with monoterpene/triterpene glycoside G1 were used to study the degradation of IκB and nuclear translocation of the p65 subunit of NF-κB respectively. Then, 50 μg of the cytoplasmic or nuclear protein were resolved on a 9% SDS-polyacrylamide gel and electrotransferred onto a nitrocellulose membrane. The membranes were probed with rabbit anti-IκBα or rabbit anti-p65 antibody (Santa Cruz, Calif.) followed with anti-rabbit antibody conjugated to horseradish peroxidase (HRPO). Protein bands were detected by chemiluminescence (ECL, Amersham).

[4] = tested on: Jurkat (T-cell leukemia) cells; assay: Cytotoxicity screen (MTT/crystal violet, 72 h); assay type: cell-based, human; settings: for inhibitory concentration 50 (IC50), growth inhibition: MTT, 72 hours
Description: Each of the extracts was then screened against a panel of human tumor and non-tumor cells including human ovarian cancer cell lines, T-leukemic cells, human epidermoid cells, human breast cancer cells, human prostate cancer cells, human foreskin fibroblast cells, human endothelial cells, and human renal cancer cells. The cells were first plated in 96-well plates for 18-24 hours at 37° C. The cells were then exposed to varying concentrations of the plant extracts, and incubated for 72 hours at 37° C., and stained with either MTT (3-(4,5-dimethylethiazol-2-yl)-2,5-diphenyl tetrazolium bromide; Sigma Chemical Co.) for 4 hours or crystal violet (Sigma Chemical Co.) for 20 minutes at room temperature. The MTT plates received lysis buffer (20% sodium dodecyl sulfate in 50% DMF) and were incubated for an additional 6 hours before taking an OD reading at 570 nm. The crystal violet plates were washed, dye was extracted for 3-4 hours with Sorenson's buffer (0.1 M sodium citrate (pH 4.2), 50% v/v ethanol), and the plates were read at 570-600 nm (Mujoo et al., 1996). Cytotoxicity of the screened extracts was indicated by comparing the OD readings between the treated media alone and the cells treated with the plant extract. Percent cytotoxicity was calculated by 100-% of control, where % of control =[((OD of cells treated with plant extract (treated sample))/(OD of cells exposed to media alone (untreated sample)))×100].
Assay for Growth Inhibition. The growth inhibitory activity of F094 and avicins was measured by the MTT [3-(4, 5-Dimethylthiazol-2-yl)-2, 5-diphenyl tetrazolium bromide)] reduction assay (Deng et al., 1999). Cells (1×10^4/well) were cultured with varying concentrations of F094, avicin D, or avicin G in 96 well plates for 72 hours at 37° C. The cells were stained with MTT for 2 hours and then incubated with lysis buffer (20% sodium dodecyl sulfate in 50% N,N-dimethylformamide) for another 6 hours. Optical density at 570 nm was used as a measure of cell viability.

[5] = Stability in solution during purification; assay type: physicochemical; settings: dilute acid solutions vs water at 40° C.
Source text: The fraction D (45% D1) from the PFP Prep column was first fractionated on a Waters C-18 column (25×100 mm). The mobile phase was 61% methanol in water with 0.1% TFA. […] A sample of D1 with 100% chromatographic purity (FIG. 35) was produced by further fractionation of the impure D1 on YMC C18-Aq column with 33% acetonitrile/water with 0.1% TFA as the mobile phase. […] Therefore, 0.1% TFA was included in solvents during the purification of D1.

C=C[C@](C)(O)CC/C=C(\C)C(=O)O[C@H]1[C@H](O)[C@@H](O)[C@H](O[C@@](C)(C=C)CC/C=C(\CO)C(=O)O[C@H]2C[C@]3(C(=O)O[C@@H]4O[C@H](CO)[C@@H](O)[C@H](O)[C@H]4O[C@@H]4O[C@@H](C)[C@H](O[C@@H]5O[C@@H](CO)[C@H](O)[C@H]5O)[C@@H](O[C@@H]5O[C@H](CO)[C@@H](O)[C@H](O)[C@H]5O)[C@H]4O)[C@H](O)C[C@]4(C)C(=CC[C@@H]5[C@@]6(C)CC[C@H](O[C@@H]7O[C@H](CO[C@@H]8O[C@H](C)[C@H](O)[C@H](O)[C@H]8O[C@@H]8OC[C@@H](O)[C@H](O)[C@H]8O)[C@@H](O)[C@H](O)[C@H]7NC(C)=O)C(C)(C)[C@@H]6CC[C@]54C)[C@@H]3CC2(C)C)O[C@@H]1C [Fraction G1]
luciferase activity induced by LPS, PMA or TNF [1]: significantly inhibited
peak of cytochrome c release ([2]; 2 μg/ml): 5 to 10 min
start of cytochrome c release ([2]; 2 μg/ml): a minute
concentration achieving most of the cytochrome c release ([2]; 10 min): 0.5 to 2.0 µg/mL
levels of LPS-induced iNOS (iNOS in RAW 264.7 cells): decreases the levels of LPS-induced iNOS and COX-2 sharply
levels of LPS-induced COX-2 (COX-2 in RAW 264.7 cells): decreases the levels of LPS-induced iNOS and COX-2 sharply
nuclear translocation of p65 subunit [3]: slows down nuclear translocation of the p65 subunit considerably
inhibitory concentration 50 (IC50), growth inhibition [4]: 0.160 to 0.181 µg/mL
Cytotoxicity IC50 ([4]; pH 6.5): 0.3 µg/mL
Cytotoxicity IC50 ([4]; pH 7.5): 0.49 µg/mL

C=C[C@](C)(O)CC/C=C(\CO)C(=O)O[C@H]1[C@H](O)[C@@H](O)[C@H](O[C@@](C)(C=C)CC/C=C(\CO)C(=O)O[C@H]2C[C@]3(C(=O)O[C@@H]4O[C@H](CO)[C@@H](O)[C@H](O)[C@H]4O[C@@H]4O[C@@H](C)[C@H](O[C@@H]5O[C@@H](CO)[C@H](O)[C@H]5O)[C@@H](O[C@@H]5O[C@H](CO)[C@@H](O)[C@H](O)[C@H]5O)[C@H]4O)[C@H](O)C[C@]4(C)C(=CC[C@@H]5[C@@]6(C)CC[C@H](O[C@@H]7O[C@H](CO[C@@H]8O[C@H](C)[C@H](O)[C@H](O)[C@H]8O[C@@H]8OC[C@@H](O)[C@H](O)[C@H]8O)[C@@H](O)[C@H](O)[C@H]7NC(C)=O)C(C)(C)[C@@H]6CC[C@]54C)[C@@H]3CC2(C)C)O[C@@H]1C [Fraction D1]
stability in solution [5]: more stable in dilute acid solutions than in water
inhibitory concentration 50 (IC50), growth inhibition [4]: 0.320 to 0.326 µg/mL
Cytotoxicity IC50 ([4]; pH 6.5): 1.01 µg/mL
Cytotoxicity IC50 ([4]; pH 7.5): 0.98 µg/mL
